Data reported in ChEMBL document CHEMBL1128289, “Reductive chemistry of the novel hypoxia-selective cytotoxin 5-[N,N-bis(2-chloroethyl)amino]-2,4-dinitrobenzamide” (J Med Chem, 1995).

Legend:
CHO-AA8 = test: Cytotoxicity in a growth inhibition assay against aerobic cultures of AA8 cells was determined; type: functional, cell-based, Cricetulus griseus
UV4 = test: Cytotoxicity in a growth inhibition assay against aerobic cultures of UV4 cells was determined; type: functional, cell-based; conditions: Cricetulus griseus

| Structure (SMILES) | IC50 (CHO-AA8; Cricetulus griseus, CHO-AA8) | IC50 (UV4) | IC50 (CHO-AA8; cho-aa8) |
| --- | --- | --- | --- |
| NC(=O)c1cc2c(cc1[N+](=O)[O-])NCCN2CCCl | 0.73 mM | 49 µM |  |
| NC(=O)c1cc2c(cc1N)NCCN2CCCl | 0.0069 mM | 0.87 µM |  |
| NC(=O)c1cc(N(CCCl)CCCl)c([N+](=O)[O-])cc1[N+](=O)[O-] |  | 960 µM | 1.6 mM |
| NC(=O)c1cc(N(CCO)CCO)c(N)cc1N | 2.3 mM | 3000 µM |  |
